Series [1] relates to female Aedes aegypti adults. Description: Arm-in-cage cloth-patch in vivo assay (topical repellency). Conditions: for Minimum Effective Dose (MED): Mean ± SEM, lowest dosage with five or fewer bites through repellent-treated cloth in 1-minute exposure, at least three volunteers. The method, boiled down: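 Starved 3–7-day-old female Ae. aegypti (Orlando strain), about 200 per cage. Cloth patches (50 cm^2) were soaked with 1 mL of solution, air-dried about 15 min and worn over a nylon stocking on volunteers' arms. MED, the lowest concentration preventing biting, was averaged over at least three subjects with at least 3 replicates (±SEM).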

Series [2] concerns female Aedes aegypti adults. Briefly: High-throughput in vitro screening assay, spatial repellency. In kind it is in vivo. The settings on record: for 30-minute RD50 compared with that of DEET: 30 minutes, α = 0.05. The essentials:
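Female Aedes aegypti aged 2-7 days, 16 per glass tube, between acetone-treated and compound-treated filter papers they could not touch. Counts on the treated side at 15, 30 and 60 min; RD50 (μg/cm^2 paper) from 4-parameter log-logistic fits with asymptotes fixed at 0.5 and 0.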

The test system of series [3] is Aedes aegypti larvae central nervous system. Briefly: Neurophysiological experiment, nerve firing of mosquito central nervous system. How it is done:
Neurophysiological Experiment—Action on Mosquito Central Nervous System All compounds were screened at 100 μM on the central nervous system of 4th instar Aedes aegypti larvae. Nerve firing was reported as the percentage firing compared to a pre-application baseline period that was determined approximately 3 minutes prior to drug application, similar to methods outlined in Norris, E. J. and Bloomquist J. R. (2021, “Recording central neurophysiological output from mosquito larvae for neuropharmacological and insecticide resistance studies,” J. Insect Physiol. 135: 104319). […] Compound potency was characterized by “time-to-nerve block” defined as the first time point where significant nerve block was observed compared to the vehicle control via a Student T-test, p<0.05 as shown in Table 1 and FIG. 2.
Statistical Analyses: Student's T-test was used to compare the means between tested compound and DEET and Icaridin in the arm-in-cage in vivo assay and neurophysiological study.

Series [4] relates to female Aedes aegypti adults. Description: High-throughput in vitro screening assay, knockdown and mortality. The settings on record: for KD50 (30 min), half-knockdown dose / KD50 (60 min), half-knockdown dose: dose per assay tube volume, 95% CI.
In series [5] the test system is female Aedes aegypti adults. Conditions: estimated from a previous report (Licciardi 2006); cited from earlier work.
Series [6] is described as follows: Vapor pressure. In kind it is physicochemical. Conditions: MFA versus MDMA.
The conditions of series [7]: at 25.00° C.; cited from earlier work.
The conditions of series [8]: literature evaluations; cited from earlier work.
Where [9] appears, read: dose per filter paper surface area, 95% CI.

These results are taken from patent publication US20240292836A1, “AGENTS FOR REPELLING, KNOCKING DOWN, AND/OR KILLING BLOOD-SUCKING ARTHROPODS AND USES THEREOF” (The United States of America, as represented by the …, priority 2023, published 2024).

Several values for one entry are separate records, joined by “and”; a condition that tells them apart may be missing. Equal values may be shown once. Some results are limits rather than exact numbers.

As to `CCCCCOC(=O)c1ccccc1` [nPeB, n-pentyl benzoate], in series [1], the “Minimum Effective Dose (MED)” value is given as greater than 0.187 mg/cm^2. The “topical repellency (in words)” value in series [1] (initial screening dose of 0.187 mg/cm^2) is “did not show any topical repellencies”. Further, in series [2], the “30-minute RD50 compared with that of DEET” value is “not significantly different from that of DEET”. The “nerve block (in words)” value in series [3] (100 μM, 4th instar larvae) is recorded as “Nerve block was produced by all compounds screened at this concentration, except for compound nPeB”. Further, in series [4], the “KD50 (30 min), half-knockdown dose” value turned out to be 4.77 µg/mL and the “KD50 (60 min), half-knockdown dose” value is 3.98 µg/mL. In addition, in series [4] (in vivo), the “knockdown and mortality activities (in words)” value is “exhibited considerable knockdown and mortality activities”.
`COC(=O)c1ccccc1OC` [M2MOB, methyl 2-methoxybenzoate]: in series [1], the “Minimum Effective Dose (MED)” value worked out at 0.049 mg/cm^2. In addition, the “30-minute RD50 compared with that of DEET” value in series [2] is “not significantly different from that of DEET”. Besides, the “Time to nerve block” value in series [3] (100 μM on central nervous system of 4th instar larvae) was determined as 24 min. Moreover, in series [4], the “KD50 (30 min), half-knockdown dose” value was greater than 7 µg/mL and the “KD50 (60 min), half-knockdown dose” value is greater than 7 µg/mL.
Regarding `CCN(CC)C(=O)c1cccc(C)c1` [DEET, N,N-diethyl-meta-toluamide, reference compound], in series [1], the “Minimum Effective Dose (MED)” value was 0.0100±0.003 mg/cm^2 and 0.0100 mg/cm^2. This compound also returned a mosquitoes repelled in series [2] (60 minutes, dose of 100 μg/cm^2) of 100%. Besides, the “dose at which knockdown might begin” value in series [5] is reported as “approximately 15 μg/cm^3”. In series [4], the “KD50 (30 min), half-knockdown dose” value is greater than 15 µg/mL and the “KD50 (60 min), half-knockdown dose” value is greater than 15 µg/mL.
For the compound `COC(=O)c1ccccc1NC=O` [MFA, methyl N-formylanthranilate], the “Minimum Effective Dose (MED)” value in series [1] came out at 0.047 mg/cm^2. In series [2] (setting [9]), the “RD50 (30 min), half-repellent dose” value is reported as greater than 100 μg/cm^2. In series [2] (60 min, dose per filter paper surface area, 95% CI), the “RD50 (60 min), half-repellent dose” value was greater than 100 μg/cm^2. Further, the “spatial repellency (in words)” value in series [2] (highest-tested dose of 100 μg/cm^2) was “did not show spatial repellencies”. Moreover, the “vapor pressure, times lower than that of MDMA” value in series [6] was 769 times. Also, the vapor pressure in series [7] is 0.000013 mmHg. In addition, in series [8], the “safety (in words)” value is “No adverse effects to humans have been found”.
Consider `COC(=O)c1ccccc1N(C)C` [MDMA, methyl N,N-dimethyl anthranilate], for which the “Minimum Effective Dose (MED)” value in series [1] was 0.039 mg/cm^2. Besides, in series [2] (setting [9]), the “RD50 (30 min), half-repellent dose” value is on record as 6.58 μg/cm^2. Besides, in series [2], the “30-minute RD50 compared with that of DEET” value is recorded as “significantly lower than that of DEET”. Besides, in series [7], the vapor pressure was 0.01 mmHg.
